Here are results for one compound from article PMC6268972, “Antiproliferative, Antimicrobial and Apoptosis Inducing Effects of Compounds Isolated from Inula viscosa” (Molecules, 2012).

One assay relates to Candida albicans. As to the kind of experiment: Microtiter plate dilution MIC, C. albicans. It counts as cell-based. As to conditions: Candida albicans, ATCC90028; ATCC 90028, malt extract broth, 24 h, 100% inhibition; read-out: Minimum inhibitory concentration (MIC) C.a. The procedure: (§1) The microbial strains used in this study were Escherichia coli (ATCC 10798), Salmonella typhimurium (ATCC14028), Methicillin resistant Staphylococcus aureus (MRSA, Clinical isolate), Bacillus cereus (Toxigenic strain TS), and Candida albicans (ATCC 90028). Bacterial strains were stocked onto nutrient agar slant at 4 °C, and Candida albicans was stocked onto malt agar slant at 4 °C.
(§2) The microtiter plate dilution method was used to determine the MIC (minimum inhibitory concentration) of compounds under study. Sterile 96-well microplates (Nunc) were used for the assay. Stock compounds were dissolved in DMSO so that the final concentrations in micro wells were less than 1% DMSO and solvent controls were run at these concentrations. Positive controls of penicillin G and tetracycline (Oxoid, Hampshire, UK) were prepared at the following concentrations 2, 4, 8, 16, 31, 62.5, 125, and 250 μg/mL. 1% DMSO was used as a solvent control. Compounds were diluted to twice the desired initial test concentration (250 µg/mL) with Muller Hinton broth (MHB) (Oxoid). All wells, except the first were filled with MHB (50 μL). Compounds (100 μL) were added to the first well and serial two-fold dilutions were made down to the desired minimum concentration (2 μg/mL). An over-night culture of bacteria suspended in MHB was adjusted to turbidity equal to 0.5 McFarland standard. The plates were inoculated with bacterial suspension (50 μL/well) and incubated at 37 °C for 24 h. Then the turbidity was measured using micro-plate reader (Biotek) at 620 nm wavelength. The same procedure was used to determine the antifungal activity of compounds against Candida albicans. The medium used was malt extract broth. The yeast cells were suspended in 0.85% saline, with an optical density equivalent to 0.5 McFarland standard, and diluted 1:100 in malt extract broth to obtain the working concentration. After 24 h incubation with each compound, the turbidity was measured at 530 nm wavelength using a spectrophotometer (Biotek). Percentage inhibition for tested microorganisms was calculated using the following formula:
(§3) MIC was determined as the lowest concentration of the compound that causes complete inhibition (100%) of each microorganism.

For assay [1], the system named is MCF-7 cells. The assay is described as follows: TUNEL colorimetric apoptosis assay. It counts as cell-based, human. As to conditions: 15 µg/mL, 28 h, compared with untreated cells. The method, then: Apoptosis was detected using terminal deoxynucleotidyl transferase (TdT) mediated-16-deoxyuridine triphosphate (dUTP) Nick-End Labelling (TUNEL) system (Promega, Madison, WI, USA). MCF-7 cells cultured in 24 well plates were treated with 15 µg/mL of either 3-O-methylquercetin or 3,3′-di-O-methylquercetin for 28 h. The assay was conducted according to the manufacturer's instructions. Briefly, treated cells were fixed using 10% formalin followed by washing with phosphate buffer saline (PBS). Cells were then permeabilized using 0.2% triton X-100. Biotinylated dUTP in rTdT reaction mixture was added to label the fragmented DNA at 37 °C for one hour, followed by blocking endogenous peroxidases using 0.3% hydrogen peroxide. Streptavidin HRP (1:500 in PBS) was added and incubated at room temperature for 30 min. Finally, hydrogen peroxide and chromagen diaminobenzidine were used to visualize nuclei with fragmented DNAs under the light microscope (Novex, Arnhem, Holland). Cells treated with 40 nM vincristine sulfate were used as a positive control while untreated cells were used as a negative control.

Assay [2] relates to MCF-7 cells. The assay is described as follows: MTT antiproliferative activity assay, MCF-7. The following applies: Homo sapiens, MCF7; MTT, 48 h treatment, average of three replicates; read-out: IC50 MCF-7. It counts as cell-based, human. The procedure: Hep-2 (larynx carcinoma, ATCC: CCL-23), MCF-7 (breast epithelial adenocarcinoma, ATCC: HTB-22), and Vero (African green monkey kidney, ATCC: CCL-81) cell lines were kindly provided by Dr. Mona Hassuneh (Department of Biological Sciences, University of Jordan). Cells were grown in Minimum Essential Medium Eagle (Gibco, Paisley UK) supplemented with 10% heat inactivated fetal bovine serum (Gibco, Paisley UK), 29 μg/mL L-glutamine, and 40 μg/mL gentamicin. Cells were incubated in a humidified atmosphere of 5% CO2 at 37 °C.
The antiproliferative activity of Inula viscosa compounds was measured using the MTT (3-(4,5-dimethylthiazol-2-yl)-2,5-diphenyltetrazolium bromide) assay (Promega, Madison, WI, USA). The assay detects the reduction of MTT by mitochondrial dehydrogenase to blue formazan product, which reflects the normal function of mitochondria and cell viability. Exponentially growing cells were washed and seeded at 17,000 cells/well for Hep-2 cell line and 11,000 cells/ well for MCF-7 cell line (in 200 μL of growth medium) in 96 well microplates (Nunc, Roskilde, Denmark). After 24 h incubation, a partial monolayer was formed then the media was removed and 200 μL of the medium containing the compound (initially dissolved in DMSO) were added and re-incubated for 48 h. Then 100 μL of the medium were aspirated and 15 μL of the MTT solution were added to the remaining medium (100 μL) in each well. After 4 h contact with the MTT solution, blue crystals were formed. One hundred μL of the stop solution were added and incubated further for 1 h.
Reduced MTT was assayed at 550 nm using a microplate reader (Biotek, Winooski, VT, USA). Control groups received the same amount of DMSO (0.1%).Untreated cells were used as a negative control while, cells treated with vincristine sulfate were used as a positive control. Eight concentrations (150, 100, 50, 20, 10, 5, 2, and 1 μg/mL) were prepared from each compound and tested against the three cell lines. IC50 values were calculated as the concentrations that show 50% inhibition of proliferation on any tested cell line. Stock solutions of the compounds were dissolved in (DMSO) then diluted with the medium and sterilized using 0.2 μm membrane filters. The toxicity of DMSO was determined and the final dilution of compounds used for treating the cells contained not more than 0.1% (non toxic concentration) DMSO. IC50 values were reported as the average of three replicates. The antiproliferative effect of the tested compounds was determined by comparing the optical density of the treated cells against the optical density of the control (cells treated with media containing 0.1% DMSO).
In general terms: Tetrazolium dyes change colour on reduction, which living cells bring about.

Assay [3] deals with Methicillin resistant Staphylococcus aureus (MRSA). As to the kind of experiment: Microtiter plate dilution MIC, MRSA. It counts as cell-based. As to conditions: Staphylococcus aureus, MRSA; clinical isolate, 24 h, 100% inhibition; read-out: Minimum inhibitory concentration (MIC) MRSA. The procedure:
as §1, §2, §3

For another assay, the system named is Salmonella typhimurium. As to the kind of experiment: Microtiter plate dilution MIC, S. typhimurium. The format is cell-based. As to conditions: Salmonella enterica, ATCC 14028 / TYPHIMURIUM; ATCC14028, 24 h, 100% inhibition; read-out: Minimum inhibitory concentration (MIC) S.t. The procedure:
as §1, §2, §3

For orientation: IC50 means the concentration at which inhibition is half-maximal.

Converted amounts (≈) assume the structure as drawn.

On to `COc1cc(-c2oc3cc(O)cc(O)c3c(=O)c2OC)ccc1O` [3,3′-di-O-Methylquercetin], for which the MIC with Candida albicans was 250 µg/mL (≈ 757 µM); in assay [3], 250 µg/mL (≈ 757 µM); in the assay with Salmonella typhimurium, 125 µg/mL (≈ 378 µM). Also, the “Apoptosis induction (DNA fragmentation, TUNEL)” value in the assay on MCF-7 cells [1] is listed as “increase in the number of apoptotic cells with fragmented DNA”. Further, in the assay with MCF-7 cells [2], the IC50 came to 10.1 ± 1.15 µg/mL (≈ 30.6 µM).
